Test results from paper PMC11181322, “Copper(II) Complexes with Isomeric Morpholine-Substituted 2-Formylpyridine Thiosemicarbazone Hybrids as Potential Anticancer Drugs Inhibiting Both Ribonucleotide Reductase and Tubulin Polymerization: The Morpholine Position Matters” (Journal of Medicinal Chemistry, 2024).

How the values were obtained:
[1] = pKa of the copper(II) complexes (UV–vis / pH-potentiometric titrations); conditions: 30% (v/v) DMSO/H2O, 25 °C
Procedure: The solution speciation of copper(II) complexes with H2L^3–H2L^6 was studied primarily by UV–vis spectrophotometric titrations in a 30% (v/v) DMSO/H2O solvent mixture as a function of pH.
An Agilent Carry 8454 diode array spectrophotometer was used to record the UV–vis spectra in the interval 200–800 nm. The path length was 1 cm. Proton dissociation constants (pKa) of the proligands and complexes were calculated by the computer program PSEQUAD.[94] Spectrophotometric titrations were performed on samples containing the proligands at a 50–100 μM concentration with a KOH solution in the presence of 0.1 M KCl at 25.0 ± 0.1 °C in the pH range from 2 to 11.5 in a 30% (v/v) DMSO/H2O solvent mixture, and the metal-to-ligand ratios were 1:0, 1:1, and 1:2. An Orion 710A pH meter equipped with a Metrohm combined electrode (type 6.0234.100) and a Metrohm 665 Dosimat buret were used for the titrations. […] Ar was also passed over the solutions during the titrations. Measurements were carried out in the range ca. 1.0–2.0 by preparing individual samples, in which KCl was partially or completely replaced by HCl, and pH values were calculated from the strong acid content. The conditional stability constants (K′) of the copper(II) complexes were calculated at pH 5.90 based on the spectral changes via the displacement reaction with EDTA in the presence 50 mM MES and 0.1 M KCl in water or in 30% (v/v) DMSO/H2O. In the competition experiments, the samples contained 25 μM copper(II) and 25 μM proligand, and the concentration of EDTA was varied from 0 to 400 μM. The conditional stability constants of the metal complexes (K′) and the individual spectra of the species were calculated by the computer program PSEQUAD.[94]

[2] = Conditional stability constants of the copper(II) complexes by EDTA displacement (UV–vis); type: physicochemical; conditions: for logK′5.9 (DMSO/H2O) / logK′5.9 (H2O): EDTA displacement, UV–vis, 25 °C; for logK′5.9 (DMSO/H2O): pH 5.9, 30% (v/v) DMSO/H2O; for logK′5.9 (H2O): pH 5.9, water, I = 0.1 M (KCl); for pCu5.9 (=–log[Cu(II)]): calcd. at pH 5.9, cL = cCu(II) = 1 μM
Procedure: The stability constants of 3–6 were determined by EDTA competition experiments monitored by UV–vis spectrophotometry at pH 5.9, where the [Cu(HL)]^+ species is dominant. Since the displacement of the TSC ligand by EDTA is relatively slow, a 2 h reaction time was used to reach equilibrium. Upon increasing the concentration of EDTA, the absorbance of the characteristic S → Cu charge transfer band at 400–416 nm decreased (see, for example, Figure 3 for the copper(II)–H2L^4 (1:1) system).[68] The experiments were performed in both aqueous solution and the 30% (v/v) DMSO/H2O solvent mixture. The determined conditional (apparent) formation constants (log K′5.9) are rather similar (see Table 2) in both media. However, the values are lower in the DMSO/H2O solvent mixture than in aqueous solution, presumably due to coordination of DMSO to copper(II). An analogous observation was reported for the copper(II) complex of Triapine.[67] […] To compare the copper(II) binding ability of the studied TSCs H2L^3–H2L^6 at pH 5.9 (at which the conditional constants were determined), pCu (−log [Cu(II)]) values were also computed using the experimentally determined equilibrium constants (Table 2). The higher pCu value indicates a stronger metal ion binding ability of the ligand under given circumstances. The ligands form complexes with fairly similar stability, in agreement with the conditional stability constants. […] A similar behavior was reported for aqueous solutions of the N-terminally dimethylated derivative of the 2-pyridinecarboxaldehyde TSC (PTSC)[69] and for the corresponding morpholine-hybrid Morph-dm-FTSC.[52] In particular, the calculated pCu values were also very close, 13.17 for PTSC vs 13.08 for Morph-dm-FTSC calculated at pH 7.4.
The path length was 1 cm.

[3] = system: MES-SA cells; experiment: Cell cycle analysis, MES-SA; type: cell-based, human; conditions: for G0/G1 / G2/M / S: MES-SA
Procedure: (§1) Cell cycle arrest in S-phase has been observed for Triapine analogues at concentrations ranging from 0.25 to 5.0 μM,[82],[83] in line with a mechanism of action relying on RNR inhibition.
(§2) Figure S18. Cell cycle arrest for (a) proligand H2L4 and (b) complex 4 in MES-SA cells, as
(§3) well as for (c) proligand H2L4 and (d) complex 4 in the MES-SA/Dx5 cancer cell line.
(§4) Table S4. Cell cycle arrest for proligand H2L4 and complex 4 in the MES-SA and MES-
(§5) SA/Dx5 cancer cell lines.
(§6) H2L4 (MES-SA) H2L4 (MES-SA/Dx5) complex 4 (MES-SA) complex 4 (MES-SA/Dx5)
(§7) Table S5. Cell cycle arrest for proligand H2L6 and complex 6 in the MES-SA and MES-
(§8) H2L6 (MES-SA) H2L6 (MES-SA/Dx5) complex 6 (MES-SA) complex 6 (MES-SA/Dx5)
(§9) (1 picture or pasted object on this page, not shown here)

[4] = system: MES-SA/Dx5 cells; experiment: Cell cycle analysis, MES-SA/Dx5; type: cell-based, human
Procedure: as §1, §2, §3, §4, §5, §6, §7, §8, §9

[5] = system: tubulin; experiment: Inhibition of [3H]colchicine binding to tubulin; conditions: for inhibition of colchicine binding % inhibition ± SD: tubulin 0.5 μM, colchicine 5 μM
[6] = system: MES-SA/Dx5 cells; experiment: Intracellular ROS generation, DCF-DA assay, MES-SA/Dx5; type: cell-based, human; conditions: 25 μM, 4 h treatment
Procedure: ROS accumulation was evaluated in both the MES-SA and MES-SA/Dx5 cell lines by using 2′,7′-dichlorodihydrofluorescein diacetate (H2DCF-DA) as a probe. This compound enters the cells by passive diffusion, and after oxidation, it is converted to the highly fluorescent 2′,7′-dichlorofluorescein (DCF), enabling the estimation of intracellular ROS levels. ROS generation was measured after a 4 h treatment with 25 μM H2L^6 or 6; tert-butylhydroperoxide (TBHP, 25 μM) was used as a positive control.
Figure 6 Intracellular ROS generation measured by the DCF-DA assay in MES-SA (filled bars) and MES-SA/Dx5 (lattice bars) cells, after a 4 h treatment with the indicated compounds at 25 μM: H2L^6 (gray), complex 6 (yellow), Triapine (green), and TBHP (brown). Values indicate fold change relative to the fluorescence of the cells treated with fluorescent probe alone (orange bars), following normalization to the initial fluorescence at the beginning of the incubation. Paired t test to the medium control was calculated; […]; **P < 0.01. Values were calculated from at least three independent experiments.
The human uterine sarcoma cell lines MES-SA and the doxorubicin selected MES-SA-Dx5 were obtained from ATCC (MES-SA: No. CRL-1976, MES-SA/Dx5: No. CRL-1977) and were used for the intracellular ROS generation studies. […]

[7] = cell line not given (figures: MES-SA and MES-SA/Dx5)

SMILES	pKa[Cu(H2L)]2+ ([1]; UV–vis spectrophotometry)	pKa[Cu(H2L)]2+ ([1]; pH potentiometry)	logK′5.9 (DMSO/H2O) [2]	logK′5.9 (H2O) [2]	pCu5.9 (=–log[Cu(II)]) [2]	G0/G1 ([3]; 2 µM)	G2/M ([3]; 2 µM)	S ([3]; 2 µM)	G0/G1 ([3]; 4 µM)	G2/M ([3]; 4 µM)	S ([3]; 4 µM)	G0/G1 ([3]; 8 µM)	G2/M ([3]; 8 µM)	S ([3]; 8 µM)	G0/G1 ([4]; MES-SA/Dx5, 2 µM)	G2/M ([4]; MES-SA/Dx5, 2 µM)	S ([4]; MES-SA/Dx5, 2 µM)	G0/G1 ([4]; MES-SA/Dx5, 4 µM)	G2/M ([4]; MES-SA/Dx5, 4 µM)	S ([4]; MES-SA/Dx5, 4 µM)	further results
Cc1cc(NC(=NN=Cc2cc(CN3CCOCC3)ccn2)[S][Cu][Cl])cc(C)c1O [complex 4, [Cu(HL^4)Cl]·1.5H2O]	4.48 ± 0.01	4.60 ± 0.02	10.07 ± 0.01	13.35 ± 0.02	8.06	63%	21%	16%	56%	25%	19%	50%	30%	20%	48%	32%	20%	43%	36%	21%	cell cycle effect [3, 7]: gradually increased the G2/M ratio in a concentration-dependent manner; G0/G1 ([4]; MES-SA/Dx5, 8 µM): 47%; G2/M ([4]; MES-SA/Dx5, 8 µM): 36%; S ([4]; MES-SA/Dx5, 8 µM): 16%
Cc1cc(NC(=NN=Cc2ccc(CN3CCOCC3)cn2)[S][Cu][Cl])cc(C)c1O [complex 5, [Cu(HL^5)Cl]·2.5H2O]	4.75 ± 0.01	4.95 ± 0.04	9.99 ± 0.01	13.39 ± 0.01	8.02	–	–	–	–	–	–	–	–	–	–	–	–	–	–	–	–
Cc1cc(NC(=NN=Cc2cccc(CN3CCOCC3)n2)[S][Cu][Cl])cc(C)c1O [complex 6, [Cu(HL^6)Cl]·H2O]	–	–	10.09 ± 0.04	13.73 ± 0.02	8.07	74%	17%	9%	35%	55%	11%	24%	68%	8%	53%	35%	12%	39%	48%	12%	inhibition of colchicine binding % inhibition ± SD ([5]; 5 μM inhibitor): 5.8 ± 5%; inhibition of colchicine binding % inhibition ± SD ([5]; 25 μM inhibitor): 33 ± 2%; fold less potent than CA-4 in inhibiting [3H]colchicine binding ([5]; at the 5 μM concentration): 17 fold; Intracellular ROS generation [6]: significant ROS induction; concentrations inducing G2/M-phase arrest [3, 7]: ≥ 4 µM; G0/G1 ([4]; MES-SA/Dx5, 8 µM): 21%; G2/M ([4]; MES-SA/Dx5, 8 µM): 68%; S ([4]; MES-SA/Dx5, 8 µM): 11%
